Results taken from patent US20220002806A1, “BIOMARKER” (ERBER AKTIENGESELLSCHAFT, priority 2018, published 2022).

What was measured:
estrogen receptors β = estrogen receptors β (Homo sapiens, UniProt Q92731); conditions: Zinedine et al. 2007; cited from earlier work
weaned female piglets = experiment: Feeding trial in weaned female piglets: vulva surface, reproductive tract weight, body weight; format: in vivo, pig; conditions: for reproductive tract weight relative to body weight, average (±SD): [reproductive tract (in grams)/body weight (in kg)]*100; for increase of vulva surface compared to the control group: d 26
Source text: (§1) Weaned female piglets (sow: Landrace×Large White, boar: Pietrain; 30+/−2 days old) were obtained from a local producer and individually tagged. Piglets were housed in slatted floor pens under controlled environmental conditions. After an acclimatization period of seven days, twenty-four female piglets were selected based on both body weight and vulva size, and allocated to one of four groups (6 animals/group). Piglets received either blank feed (negative control; Ctrl) or feed contaminated with ZEN in three increasing concentrations (ZEN low: 0.17 mg/kg diet; ZEN medium: 1.5 mg/kg diet; ZEN high: 4.6 mg/kg diet). During the 28-day experimental period, each treatment group was given free access to water and the assigned diet. The pigs were observed daily and weighed weekly.
Diets were manufactured at BIOMIN AN (Herzogenburg, Austria), and formulated according to the energy and amino acid requirements for piglets. Four different batches were prepared, one control batch and three batches artificially contaminated with ZEN (Fermentek LTD, Israel; purity >99.2%). Homogenous distribution of ZEN within the diets was achieved by preparation of maltodextrin premixes, which contained appropriate amounts of ZEN and were added to the basal feed at an inclusion rate of 0.9% (w/w). Final ZEN concentrations were verified by HPLC-MS (Romer Labs GmbH) and confirmed.
(§2) Blood was collected weekly (d 0, 6, 14, 21 and 28) from individual animals by punctuation of the vena cava cranialis (Primavette® EDTA, Kabe Labortechnik GmbH, Nümbrecht-Elsenroth, Deutschland). After centrifugation (1500×g, 20 min), serum samples were stored at −80° C. for later analysis. Vulva length and width were measured at regular intervals with a caliper to determine the dietary ZEN effects. The vulva area was calculated as vulva length×vulva width, as previously reported (Jiang et al. 2011. Journal of animal science, 89, 3008-3015). Eight measurements were done per piglet over the experimental period.
After 28 days of dietary exposure to the experimental diets, pigs were anesthetized by intramuscular injection of ketamine (0.1 mL/kg body weight (b.w.) Narketan®, Vétoquinol GmbH, Ravensburg, Germany) and azaperone (0.03 mL/kg b.w.; Stresnil®, Janssen-Cilag, Neuss, Germany). Subsequently, animals were euthanized by intracardial injection of T61® (Intervet, UnterschleiBheim, Germany; 0.1 ml/kg b.w.). The whole reproductive tract was collected, weighed and examined for any clinical signs. Small pieces of the corpus uteri and the mid-jejunum were dissected, placed into 1 mL of RNAlater, and stored overnight at 4° C. The next day, all the tissue samples were transferred to −80° C. for long-term storage, and until processed for transcriptomics analysis.

pregnane X receptor = biological target: T1, pregnane X receptor (Homo sapiens, UniProt O75469); conditions: in vitro; Ayed-Boussema et al. 2011; cited from earlier work
T1 sequence (O75469 1-434): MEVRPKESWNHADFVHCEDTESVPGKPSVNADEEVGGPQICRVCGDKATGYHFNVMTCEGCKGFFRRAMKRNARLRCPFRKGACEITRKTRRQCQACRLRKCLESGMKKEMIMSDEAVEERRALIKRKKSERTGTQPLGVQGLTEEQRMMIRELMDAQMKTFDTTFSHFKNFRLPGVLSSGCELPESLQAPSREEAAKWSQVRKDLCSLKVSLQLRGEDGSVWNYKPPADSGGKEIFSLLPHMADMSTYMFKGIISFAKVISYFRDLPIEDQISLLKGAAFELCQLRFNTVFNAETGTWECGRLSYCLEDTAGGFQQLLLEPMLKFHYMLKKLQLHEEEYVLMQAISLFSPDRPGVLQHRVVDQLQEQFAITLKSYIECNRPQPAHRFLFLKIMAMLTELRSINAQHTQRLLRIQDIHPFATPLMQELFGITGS

miR-7 = conditions: ovariectomized pigs; intraperitoneal injection of 112.5 mg ZEN per day; He et al. 2018; cited from earlier work
miRNAs in serum = experiment: Targeted qPCR-based miRNA analysis in blood serum of ZEN-exposed piglets; format: in vivo, pig
Source text: as §1, §2
miRNA extraction and qPCR analysis: Unlike the small-RNA-Seq analysis, all the animals from the feeding trial were used for investigations of the miRNA profile in the serum (6 per group; total of 24 animals). RNA was isolated from the serum samples using the miRNeasy Mini Kit (Qiagen, Germany). […] To calculate the cycle of quantification values (Cq-values), the second derivative method was used, as known by a person skilled in the art. Cq-values were normalized to the mean Cq-value in each sample (global mean normalization) by subtracting the individual miRNA Cq-value from the Cq average calculated for that sample. […]

estrogen receptors α = estrogen receptors α (Homo sapiens, UniProt P03372); conditions: Zinedine et al. 2007; cited from earlier work
[1] = Zinedine et al. 2007; cited from earlier work
[2] = Ctrl vs ZEN high group (4.6 mg/kg diet), day 6 or day 28, unadjusted p-value ≤0.1

estrogen receptors α, sequence (P03372 whole entry): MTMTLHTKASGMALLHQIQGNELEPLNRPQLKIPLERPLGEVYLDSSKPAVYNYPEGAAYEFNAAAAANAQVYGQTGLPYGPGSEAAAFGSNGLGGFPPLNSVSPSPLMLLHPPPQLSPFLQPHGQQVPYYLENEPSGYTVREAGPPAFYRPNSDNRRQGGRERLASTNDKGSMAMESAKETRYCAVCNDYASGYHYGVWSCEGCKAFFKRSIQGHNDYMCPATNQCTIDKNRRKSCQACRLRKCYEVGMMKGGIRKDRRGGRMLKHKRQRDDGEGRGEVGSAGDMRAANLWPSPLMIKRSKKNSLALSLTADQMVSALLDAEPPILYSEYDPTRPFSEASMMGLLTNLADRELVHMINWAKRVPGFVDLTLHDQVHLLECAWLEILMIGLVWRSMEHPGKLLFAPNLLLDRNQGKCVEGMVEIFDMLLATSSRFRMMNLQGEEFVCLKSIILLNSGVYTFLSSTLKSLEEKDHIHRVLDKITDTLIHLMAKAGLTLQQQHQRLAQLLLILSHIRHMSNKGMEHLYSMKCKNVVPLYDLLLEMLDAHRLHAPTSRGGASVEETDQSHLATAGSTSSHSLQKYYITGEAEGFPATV
estrogen receptors β, sequence (Q92731 whole entry): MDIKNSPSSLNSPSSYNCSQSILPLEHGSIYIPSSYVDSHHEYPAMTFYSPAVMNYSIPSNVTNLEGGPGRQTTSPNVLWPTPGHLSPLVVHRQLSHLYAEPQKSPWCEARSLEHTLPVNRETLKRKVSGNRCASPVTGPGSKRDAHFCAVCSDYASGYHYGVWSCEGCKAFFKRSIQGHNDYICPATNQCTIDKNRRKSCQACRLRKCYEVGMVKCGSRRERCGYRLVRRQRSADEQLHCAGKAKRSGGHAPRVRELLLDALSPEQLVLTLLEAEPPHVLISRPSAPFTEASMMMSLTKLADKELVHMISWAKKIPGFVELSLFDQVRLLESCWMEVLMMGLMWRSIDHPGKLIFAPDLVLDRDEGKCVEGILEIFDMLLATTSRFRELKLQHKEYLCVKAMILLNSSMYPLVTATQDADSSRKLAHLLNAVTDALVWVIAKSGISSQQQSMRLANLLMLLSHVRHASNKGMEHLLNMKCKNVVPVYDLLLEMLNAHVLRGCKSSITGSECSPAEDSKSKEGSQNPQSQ

C[C@H]1CCCC(=O)CCC/C=C/c2cc(O)cc(O)c2C(=O)O1 [ZEN, (2E,11S)-15,17-dihydroxy-11-methyl-12-oxabicyclo[12.4.0]octadeca-1(18),2,14,16-tetraene-7,13-dione]
agonist action on estrogen receptor β (estrogen receptors β): partial agonist
days of exposure after which vulva surface was significantly increased (weaned female piglets; ZEN high (4.6 mg/kg diet)): six
reproductive tract weight relative to body weight, average (±SD) (weaned female piglets; ZEN high (4.6 mg/kg diet), 28 days): 353.4±110.6
increase of vulva surface compared to the control group (weaned female piglets; ZEN high (4.6 mg/kg diet)): +230%
reproductive tract weight relative to body weight, average (±SD) (weaned female piglets; ZEN low (0.17 mg/kg diet), 28 days): 55.8±17.2
days of exposure after which vulva surface was significantly increased (weaned female piglets; ZEN medium (1.5 mg/kg diet)): thirteen
reproductive tract weight relative to body weight, average (±SD) (weaned female piglets; ZEN medium (1.5 mg/kg diet), 28 days): 121.4±43.4
increase of vulva surface compared to the control group (weaned female piglets; ZEN medium (1.5 mg/kg diet)): +90%
effect on the body weight of the piglets (weaned female piglets; independent of the concentration (0.17-4.6 mg/kg diet), 28 days): no effect
action on pregnane X receptor (pregnane X receptor): activates
expression of miR-7 in pituitary tissue (miR-7): increase
serum levels of ssc-miR-1, ssc-miR-142-3p, ssc-miR-181c and ssc-miR-182 (miRNAs in serum; [2]): down-regulated
serum levels of ssc-miR-140-3p, ssc-miR-455-3p, ssc-miR-455-5p and ssc-miR-542-3p (miRNAs in serum; [2]): Up-regulated
log 2-transformed fold changes of serum ssc-miR-129a, ssc-miR-135, ssc-miR-206, ssc-miR-432-5p, ssc-miR-493-3p and ssc-miR-503 (miRNAs in serum; Ctrl vs ZEN high group, log 2 fold changes ≤−0.8 or ≥0.8): considerable effect
agonist action on estrogen receptor α (estrogen receptors α): full
acute toxicity [1]: low
